Experimental data from patent US8952024B2, “Herbicidal pyrimidone derivatives” (E I du Pont de Nemours and Company, priority 2009, dated 2015).

How the values were obtained:
Assay type in all cases: in vivo
[1] = tested on: chickweed (Stellaria media); experiment: Test B postemergence plant response
How it was run: (§1)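 Plants grown in peat/vermiculite medium were sprayed postemergence at 2–18 cm height (1- to 4-leaf stage). After 13–15 days in the greenhouse, response was rated visually against untreated controls on a 0–100 scale (0 no effect, 100 complete control).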

[2] = tested on: winter barley (Hordeum vulgare); experiment: Test B postemergence plant response
How it was run: as §1

[3] = tested on: windgrass (Apera spica-venti); experiment: Test B postemergence plant response
How it was run: as §1

[4] = tested on: canarygrass (Phalaris minor); experiment: Test B postemergence plant response
How it was run: as §1

[5] = tested on: velvetleaf (Abutilon theophrasti); experiment: Test B pre-/postemergence plant response
How it was run: (§2)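 Visually scored on a 0 to 100 scale after 13 to 15 days in greenhouse versus controls. Treatments were preemergence on seeded loam/sand soil and postemergence on 1- to 4-leaf plants.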

[6] = tested on: lambsquarters (Chenopodium album); experiment: Test B pre-/postemergence plant response
How it was run: as §2

[7] = tested on: bermudagrass (Cynodon dactylon); experiment: Test B pre-/postemergence plant response
How it was run: as §2

[8] = tested on: yellow nutsedge (Cyperus esculentus); experiment: Test B pre-/postemergence plant response
How it was run: as §2

wild oat (Avena fatua) = experiment: Test B pre-/postemergence plant response
How it was run: as §2

[9] = tested on: ragweed (common ragweed, Ambrosia elatior); experiment: Test B pre-/postemergence plant response
How it was run: as §2

[10] = tested on: Italian ryegrass (Lolium multiflorum); experiment: Test B pre-/postemergence plant response
How it was run: as §2

[11] = tested on: johnsongrass (Sorghum halepense); experiment: Test B pre-/postemergence plant response
How it was run: as §2

[12] = tested on: woolly cupgrass (Eriochloa villosa); experiment: Test B pre-/postemergence plant response
How it was run: as §2

[13] = tested on: large crabgrass (Digitaria sanguinalis); experiment: Test B pre-/postemergence plant response
How it was run: as §2

[14] = tested on: blackgrass (Alopecurus myosuroides); experiment: Test B pre-/postemergence plant response
How it was run: as §2

[15] = tested on: Surinam grass (Brachiaria decumbens); experiment: Test B pre-/postemergence plant response
How it was run: as §2

corn (Zea mays) = experiment: Test B pre-/postemergence plant response
How it was run: as §2

soybean (Glycine max) = experiment: Test B pre-/postemergence plant response
How it was run: as §2

[16] = 31 g ai/ha, postemergence, scale 0 to 100, 0 is no effect, 100 is complete control
[17] = 62 g ai/ha, postemergence, 0 is no effect, 100 is complete control, 13 to 15 days
[18] = Postemergence, 125 g ai/ha, visual rating after 13 to 15 days, scale 0 (no effect) to 100 (complete control)
[19] = Postemergence, 250 g ai/ha, scale 0 to 100 (0 no effect, 100 complete control)
[20] = Preemergence, 31 g ai/ha, scale 0 to 100 (0 no effect, 100 complete control)
[21] = Preemergence, 62 g ai/ha, scale 0 to 100, 0 no effect, 100 complete control
[22] = Preemergence, 125 g ai/ha, scale 0 to 100, 0 no effect, 100 complete control
[23] = 250 g ai/ha, Preemergence, 0 to 100 scale

## CCCc1ncc(C(=O)C2=C(O)CCCC2=O)c(=O)n1CCC [Compound 72]
[1]; [16]
  Plant response rating, Chickweed: 70
[1]; [17]
  Chickweed plant response rating (0 to 100 scale): 85
[1]; [18]
  Plant response rating, Chickweed: 90
[1]; [19]
  Plant response rating, Chickweed: 90
[2]; [16]
  Plant response rating, Barley: 0
[2]; [17]
  Barley plant response rating (0 to 100 scale): 0
[2]; [18]
  Plant response rating, Barley: 0
[2]; [19]
  Plant response rating, Barley: 0
[3]; [16]
  Plant response rating, Windgrass: 5
[3]; [17]
  Windgrass plant response rating (0 to 100 scale): 20
[3]; [18]
  Plant response rating, Windgrass: 60
[3]; [19]
  Plant response rating, Windgrass: 65
[4]; [16]
  Plant response rating, Canarygrass: 0
[4]; [17]
  Canarygrass plant response rating (0 to 100 scale): 0
[4]; [18]
  Plant response rating, Canarygrass: 0
[4]; [19]
  Plant response rating, Canarygrass: 0
[5]; [16]
  Plant response rating, Velvetleaf: 98
[5]; [17]
  Velvetleaf plant response rating (0 to 100 scale): 100
[5]; [18]
  Plant response rating, Velvetleaf: 100
[5]; [19]
  Plant response rating, Velvetleaf: 100
[5]; [20]
  Plant response rating, Velvetleaf: 98
[5]; [21]
  Plant response rating, Velvetleaf: 100
[5]; [22]
  Plant response rating, Velvetleaf: 100
[6]; [16]
  Plant response rating, Lambsquarters: 90
[6]; [17]
  Lambsquarters plant response rating (0 to 100 scale): 100
[6]; [23]
  Plant response rating, Lambsquarters: 100
[6]; [18]
  Plant response rating, Lambsquarters: 100
[6]; [19]
  Plant response rating, Lambsquarters: 100
[6]; [20]
  Plant response rating, Lambsquarters: 98
[6]; [21]
  Plant response rating, Lambsquarters: 98
[6]; [22]
  Plant response rating, Lambsquarters: 98
[7]; [16]
  Plant response rating, Bermudagrass: 75
[7]; [17]
  Bermudagrass plant response rating (0 to 100 scale): 80
[7]; [23]
  Plant response rating, Bermudagrass: 100
[7]; [18]
  Plant response rating, Bermudagrass: 85
[7]; [19]
  Plant response rating, Bermudagrass: 85
[7]; [20]
  Plant response rating, Bermudagrass: 95
[7]; [21]
  Plant response rating, Bermudagrass: 98
[7]; [22]
  Plant response rating, Bermudagrass: 98
[8]; [16]
  Plant response rating, Nutsedge, Yellow: 35
[8]; [17]
  Nutsedge, Yellow plant response rating (0 to 100 scale): 65
[8]; [18]
  Plant response rating, Nutsedge, Yellow: 65
[8]; [19]
  Plant response rating, Nutsedge, Yellow: 75
[8]; [20]
  Plant response rating, Nutsedge, Yellow: 40
[8]; [21]
  Plant response rating, Nutsedge, Yellow: 70
[8]; [22]
  Plant response rating, Nutsedge, Yellow: 75
Wild oat (Avena fatua); [16]
  Plant response rating, Oat, Wild: 0
Wild oat (Avena fatua); [18]
  Plant response rating, Oat, Wild: 30
Wild oat (Avena fatua); [19]
  Plant response rating, Oat, Wild: 40
Wild oat (Avena fatua); [20]
  Plant response rating, Oat, Wild: 0
Wild oat (Avena fatua); [21]
  Plant response rating, Oat, Wild: 0
Wild oat (Avena fatua); [22]
  Plant response rating, Oat, Wild: 0
[9]; [16]
  Plant response rating, Ragweed: 75
[9]; [17]
  Ragweed plant response rating (0 to 100 scale): 80
[9]; [18]
  Plant response rating, Ragweed: 90
[9]; [19]
  Plant response rating, Ragweed: 95
[9]; [20]
  Plant response rating, Ragweed: 55
[9]; [21]
  Plant response rating, Ragweed: 70
[9]; [22]
  Plant response rating, Ragweed: 80
[10]; [16]
  Plant response rating, Ryegrass, Italian: 0
[10]; [17]
  Ryegrass, Italian plant response rating (0 to 100 scale): 0
[10]; [18]
  Plant response rating, Ryegrass, Italian: 10
[10]; [19]
  Plant response rating, Ryegrass, Italian: 30
[10]; [20]
  Plant response rating, Ryegrass, Italian: 0
[10]; [21]
  Plant response rating, Ryegrass, Italian: 0
[10]; [22]
  Plant response rating, Ryegrass, Italian: 0
[11]; [16]
  Plant response rating, Johnsongrass: 0
[11]; [17]
  Johnsongrass plant response rating (0 to 100 scale): 10
[11]; [23]
  Plant response rating, Johnsongrass: 10
[11]; [18]
  Plant response rating, Johnsongrass: 40
[11]; [19]
  Plant response rating, Johnsongrass: 45
[11]; [20]
  Plant response rating, Johnsongrass: 0
[11]; [21]
  Plant response rating, Johnsongrass: 0
[11]; [22]
  Plant response rating, Johnsongrass: 0
[12]; [16]
  Plant response rating, Cupgrass, Woolly: 45
[12]; [17]
  Cupgrass, Woolly plant response rating (0 to 100 scale): 45
[12]; [23]
  Plant response rating, Cupgrass, Woolly: 65
[12]; [18]
  Plant response rating, Cupgrass, Woolly: 50
[12]; [19]
  Plant response rating, Cupgrass, Woolly: 50
[12]; [20]
  Plant response rating, Cupgrass, Woolly: 0
[12]; [21]
  Plant response rating, Cupgrass, Woolly: 0
[12]; [22]
  Plant response rating, Cupgrass, Woolly: 45
[13]; [16]
  Plant response rating, Crabgrass, Large: 75
[13]; [17]
  Crabgrass, Large plant response rating (0 to 100 scale): 80
[13]; [23]
  Plant response rating, Crabgrass, Large: 100
[13]; [18]
  Plant response rating, Crabgrass, Large: 85
[13]; [19]
  Plant response rating, Crabgrass, Large: 90
[13]; [20]
  Plant response rating, Crabgrass, Large: 95
[13]; [21]
  Plant response rating, Crabgrass, Large: 100
[13]; [22]
  Plant response rating, Crabgrass, Large: 100
[14]; [16]
  Plant response rating, Blackgrass: 0
[14]; [17]
  Blackgrass plant response rating (0 to 100 scale): 0
[14]; [23]
  Plant response rating, Blackgrass: 5
[14]; [18]
  Plant response rating, Blackgrass: 0
[14]; [19]
  Plant response rating, Blackgrass: 0
[14]; [20]
  Plant response rating, Blackgrass: 0
[14]; [21]
  Plant response rating, Blackgrass: 0
[14]; [22]
  Plant response rating, Blackgrass: 0
[15]; [16]
  Plant response rating, Surinam Grass: 75
[15]; [17]
  Surinam Grass plant response rating (0 to 100 scale): 80
[15]; [18]
  Plant response rating, Surinam Grass: 80
[15]; [19]
  Plant response rating, Surinam Grass: 100
[15]; [20]
  Plant response rating, Surinam Grass: 45
[15]; [21]
  Plant response rating, Surinam Grass: 75
[15]; [22]
  Plant response rating, Surinam Grass: 75
Corn (Zea mays); [16]
  Plant response rating, Corn: 0
Corn (Zea mays); [17]
  Corn plant response rating (0 to 100 scale): 0
Corn (Zea mays); [23]
  Plant response rating, Corn: 0
Corn (Zea mays); [18]
  Plant response rating, Corn: 5
Corn (Zea mays); [19]
  Plant response rating, Corn: 10
Corn (Zea mays); [20]
  Plant response rating, Corn: 0
Corn (Zea mays); [21]
  Plant response rating, Corn: 0
Corn (Zea mays); [22]
  Plant response rating, Corn: 0
Soybean (Glycine max); [16]
  Plant response rating, Soybean: 80
Soybean (Glycine max); [17]
  Soybean plant response rating (0 to 100 scale): 80
Soybean (Glycine max); [18]
  Plant response rating, Soybean: 85
Soybean (Glycine max); [19]
  Plant response rating, Soybean: 95
